Experimental findings from patent publication US20050080113A1, “Medicinal compositions” (priority 2001, published 2005) are described below.

As usually defined, the melting point is the temperature, or range, at which the solid turns liquid.

The compound `Cc1cccc(-c2nc(-c3ccc(F)cc3)sc2-c2ccnc(N)c2)c1` [H 18-1, 4 [2 (4 fluorophenyl)-4-(3 methylphenyl)-1,3 thiazol-5 yl]-2 pyridylamine] yielded a melting point of 160 to 162 °C.

`Cc1cccc(-c2nc(CC(F)(F)F)sc2-c2ccnc(N)c2)c1` [H 18-3, 4 [4 (3 methylphenyl)-2-(2,2,2 trifluoroethyl)-1,3 thiazol-5 yl]-2 pyridylamine]: the melting point fell in the range of 131 to 132 °C. `CCCc1nc(-c2cccc(C)c2)c(-c2ccnc(N)c2)s1` [H 18-4, 4 [4 (3 methylphenyl)-2-propyl-1,3 thiazol-5 yl]-2 pyridylamine] displayed a melting point of 113 to 115 °C. `CCOC(=O)Cc1nc(-c2cccc(C)c2)c(-c2ccnc(N)c2)s1` [H 18-5, Ethyl [5 (2 amino-4-pyridyl)-4 (3 methylphenyl)-1,3 thiazol-2 yl]acetate] returned a melting point of 128 to 129 °C. `CCc1nc(-c2cccc(Cl)c2)c(-c2ccnc(N)c2)s1` [H 20-1, 4 [2 ethyl-4 (3-chlorophenyl)-1,3 thiazol-5 yl]-2 pyridylamine] returned a melting point of 131 to 132 °C.

`CCc1nc(-c2ccccc2)c(-c2ccnc(N)c2)s1` [H 20-2, 4 (2 ethyl-4 phenyl-1,3-thiazol-5 yl)-2 pyridylamine] showed a melting point of 158 to 159 °C. The result for `CCc1nc(-c2ccc(F)cc2)c(-c2ccnc(N)c2)s1` [H 20-3, 4 [2 ethyl-4 (4-fluorophenyl)-1,3 thiazol-5 yl]-2 pyridylamine] reads 140 to 141 °C; that for `CCc1nc(-c2cccc(C(F)(F)F)c2)c(-c2ccnc(N)c2)s1` [H 20-4, 4 [2 ethyl-4 [3-(trifluoromethyl)phenyl]-1,3 thiazol-5 yl]-2 pyridylamine], 117 to 118 °C; that for `CCc1nc(-c2ccc(SC)cc2)c(-c2ccnc(N)c2)s1` [H 20-5, 4 [2 ethyl-4 [4-(methylthio)phenyl]-1,3 thiazol-5 yl]-2 pyridylamine], 119 to 120 °C. As for `CCc1nc(-c2cccc(F)c2)c(-c2ccnc(N)c2)s1` [H 20-6, 4 [2 ethyl-4 (3-fluorophenyl)-1,3 thiazol-5 yl]-2 pyridylamine], the melting point is 153 to 154 °C.

Regarding `CCc1nc(-c2ccc(Cl)cc2)c(-c2ccnc(N)c2)s1` [H 20-7, 4 [4 (4 chlorophenyl)-2-ethyl-1,3 thiazol-5 yl]-2 pyridylamine], the melting point was 136 to 137 °C. In turn, `CCc1cccc(-c2nc(CC)sc2-c2ccnc(N)c2)c1` [H 20-8, 4 [2 ethyl-4 (3-ethylphenyl)-1,3 thiazol-5 yl]-2 pyridylamine] returned a melting point of 128 to 129 °C. `CCc1nc(-c2ccc(F)c(C)c2)c(-c2ccnc(N)c2)s1` [H 20-9, 4 [2 ethyl-4 (4 fluoro-3-methylphenyl)-1,3 thiazol-5 yl]-2 pyridylamine] came in with a melting point of 134 to 135 °C. Compound `CCc1nc(-c2cccc(C(C)C)c2)c(-c2ccnc(N)c2)s1` [H 20-10, 4 [2 ethyl-4 [3 (1-methylethyl)phenyl]-1,3 thiazol-5 yl]-2 pyridylamine] yielded a melting point of 80 to 81 °C. Turning to `CCCc1cccc(-c2nc(CC)sc2-c2ccnc(N)c2)c1` [H 20-11, 4 [2 ethyl-4 (3-propylphenyl)-1,3 thiazol-5 yl]-2 pyridylamine], the melting point lay within 72 to 74 °C. In turn, `CCc1nc(-c2cccs2)c(-c2ccnc(N)c2)s1` [H 20-12, 4 [2 ethyl-4 (2 thienyl)-1,3 thiazol-5 yl]-2 pyridylamine] gave a melting point of 159 to 160 °C.

`Cc1cccc(-c2ncsc2-c2ccnc(N)c2)c1` [H 27-1, 4 [4 (3 methylphenyl)-1,3-thiazol-5 yl]-2 pyridylamine] gave a melting point of 91 to 92 °C.

In the case of `Cc1nc(-c2cccc(Cl)c2)c(-c2ccnc(N)c2)s1` [H 27-2, 4 [4 (3 chlorophenyl)-2-methyl-1,3 thiazol-5 yl]-2 pyridylamine], the melting point lay within 142 to 143 °C. To `CCc1nc(-c2cccc(C)c2)c(-c2ccnc(NC(=O)C3CCCC3)c2)s1` [H 29-1, N-[4 [2 ethyl-4 (3-methylphenyl)-1,3 thiazol-5 yl]-2-pyridyl]cyclopentanecarboxamide] belongs 123 to 125 °C; to `CC(=O)Nc1cc(-c2sc(C)nc2-c2cccc(Cl)c2)ccn1` [H 30-1, N-[4-[4-(3-chlorophenyl)-2-methyl-1,3-thiazol-5-yl]-2-pyridyl]acetamide], 112 to 115 °C; to `CCCc1nc(-c2cccc(Cl)c2)c(-c2ccnc(NC(C)=O)c2)s1` [H 30-3, N-[4-[4-(3-chlorophenyl)-2-propyl-1,3-thiazol-5-yl]-2-pyridyl]acetamide], 144 to 145 °C.

The compound `CCc1nc(-c2cccs2)c(-c2ccnc(NC(C)=O)c2)s1` [H 30-4, N-[4 [2 ethyl-4 (2-thienyl)-1,3 thiazol-5 yl]-2 pyridyl]acetamide] yielded a melting point of 154 to 155 °C. `CSc1ccc(-c2nc(-c3cccc(Cl)c3)c(-c3ccnc(NC(C)=O)c3)s2)cc1` [H 30-5, N-[4 [4 (3 chlorophenyl)-2 [4 (methylthio)phenyl]-1,3 thiazol-5 yl]-2-pyridyl]acetamide] displayed a melting point of 207 to 208 °C.

In turn, `CCC(=O)Nc1cc(-c2sc(C)nc2-c2cccc(Cl)c2)ccn1` [H 30-7, N-[4-[4-(3-chlorophenyl)-2-methyl-1,3-thiazol-5-yl]-2-pyridyl]propionamide] showed a melting point of 134 to 135 °C. To `CCC(=O)Nc1cc(-c2sc(CC)nc2-c2cccc(Cl)c2)ccn1` [H 30-8, N-[4-[4-(3-chlorophenyl)-2-ethyl-1,3-thiazol-5-yl]-2-pyridyl]propionamide] belongs 132 to 133 °C. The result for `CCCc1nc(-c2cccc(Cl)c2)c(-c2ccnc(NC(=O)CC)c2)s1` [H 30-9, N-[4-[4-(3-chlorophenyl)-2-propyl-1,3-thiazol-5-yl]-2-pyridyl]propionamide] reads 103 to 104 °C; that for `CCC(=O)Nc1cc(-c2sc(CC)nc2-c2cccs2)ccn1` [H 30-10, N-[4 [2 ethyl-4 (2-thienyl)-1,3 thiazol-5 yl]-2 pyridyl]propionamide], 187 to 188 °C; that for `CCC(=O)Nc1cc(-c2sc(-c3ccc(SC)cc3)nc2-c2cccc(Cl)c2)ccn1` [H 30-11, N-[4 [4 (3 chlorophenyl)-2 [4 (methylthio)phenyl]-1,3 thiazol-5 yl]-2-pyridyl]propionamide], 187 to 188 °C. To `CSc1ccc(-c2nc(-c3cccc(Cl)c3)c(-c3ccnc(NC(=O)C(C)(C)C)c3)s2)cc1` [H 30-12, N-[4 [4 (3 chlorophenyl)-2 [4 (methylthio)phenyl]-1,3 thiazol-5 yl]-2-pyridyl]pivalamide] belongs 119 to 120 °C; to `CCc1nc(-c2cccc(C)c2)c(-c2ccnc(NCC3CCCC3)c2)s1` [H 32, N-(cyclopentylmethyl)-4 [2-ethyl-4 (3 methylphenyl)-1,3 thiazol-5 yl]-2 pyridylamine], 67 to 69 °C. `Cc1cccc(-c2nc(N)sc2-c2ccnc(N3CCOCC3)c2)c1` [H 34-1, [4 (3 methylphenyl)-5 (2-morpholino-4 pyridyl)-1,3 thiazol-2 yl]amine] yielded a melting point of 188 to 189 °C. Turning to `Cc1cccc(-c2nc(N)sc2-c2ccnc(NC3CCCC3)c2)c1` [H 34-3, [5 (2 cyclopentylamino-4-pyridyl)-4 (3 methylphenyl)-1,3 thiazol-2 yl]amine], the melting point was in the range of 169 to 170 °C. The compound `Nc1nc(-c2cccc(Cl)c2)c(-c2ccnc(N3CCCCC3)c2)s1` [H 35-1, [4 (3 chlorophenyl)-5 (2-piperidino-4 pyridyl)-1,3 thiazol-2 yl]amine] yielded a melting point of 206 to 208 °C.

In turn, `Cc1cccc(-c2nc(-c3ccc(S(C)(=O)=O)cc3)sc2N2C=CC=CC2N2CCCCC2)c1` (stereo not drawn) [H 35-2, 4 (3 methylphenyl)-2 (4-methylsulfonylphenyl)-5 (2 piperidino-1 pyridyl)-1,3 thiazole] showed a melting point of 155 to 157 °C.

`Nc1nc(-c2ccc(F)cc2)c(-c2ccnc(NC3CCCCC3)c2)s1` [H 36-1, [5 (2 cyclohexylamino-4-pyridyl)-4 (4 fluorophenyl)-1,3 thiazol-2 yl]amine] yielded a melting point of 194 to 195 °C. To `CNc1nc(-c2cccc(C)c2)c(-c2ccnc(NC3CCCCC3)c2)s1` [H 36-2, N-methyl-[5 (2-cyclohexylamino-4 pyridyl)-4 (3 methylphenyl)-1,3 thiazol-2-yl]amine] belongs 211 to 212 °C. Take `CNc1nc(-c2cccc(C)c2)c(-c2ccnc(NC3CCCC3)c2)s1` [H 36-3, N-methyl-[5 (2-cyclopentylamino-4 pyridyl)-4 (3 methylphenyl)-1,3 thiazol-2-yl]amine]: the melting point is 170 to 172 °C. To `CCc1nc(-c2cccc(C)c2)c(-c2ccnc(NC3CCCCC3)c2)s1` [H 36-4, N-cyclohexyl-4-[2-ethyl-4-(3-methylphenyl)-1,3-thiazol-5-yl]-2-pyridylamine] belongs 110 to 112 °C; to `Cc1cccc(-c2nc(-c3ccc(S(C)(=O)=O)cc3)sc2-c2ccnc(NC3CCCCC3)c2)c1` [H 36-5, N-cyclohexyl-4-[4-(3-methylphenyl)-2-(4-methylsulfonylphenyl)-1,3-thiazol-5-yl]-2-pyridylamine], 197 to 199 °C; to `Cc1cccc(-c2nc(-c3ccc(S(C)(=O)=O)cc3)sc2-c2ccnc(NC3CCCC3)c2)c1` [H 36-7, N-cyclopentyl-4-[4-(3-methylphenyl)-2-(4-methylsulfonylphenyl)-1,3-thiazol-5-yl]-2-pyridylamine], 154 to 156 °C. For the compound `Cc1cccc(-c2nc(-c3ccc(S(C)(=O)=O)cc3)sc2-c2ccnc(N3CCOCC3)c2)c1` [H 36-8, 4 (3 methylphenyl)-2 (4-methylsulfonylphenyl)-5 (2 morpholino-4 pyridyl)-1,3 thiazole], the melting point was 200 to 202 °C.

`CCc1nc(-c2cccc(C)c2)c(-c2ccnc(N3CCOCC3)c2)s1` [H 36-9, 2 ethyl-4 (3-methylphenyl)-5 (2 morpholino-4 pyridyl)-1,3 thiazole]: the melting point was in the range of 69 to 71 °C.
